Measurements as given in ChEMBL document CHEMBL1151670, “A new quassinoid from Castela texana” (J Nat Prod, 1996).
Values after ≈ are worked out from the molar mass of the structure shown. Active and inactive are the calls of the source. No cut-off for these calls is given here.

Legend:
K562 [1] = assay: Cytotoxicity against human K562 cells at <=10 ug/ml after 2 to 7 days by neutral red assay; format: functional, cell-based
Plasmodium falciparum [2] = assay: Antimalarial activity against chloroquine-sensitive Plasmodium falciparum D6 at <=10 ug/ml after 48 hrs as LDH activity by Makler assay; format: functional, organism-based
Plasmodium falciparum [3] = assay: Antimalarial activity against chloroquine-resistant Plasmodium falciparum W2 at <=10 ug/ml after 48 hrs as LDH activity by Makler assay; format: functional, organism-based
BT-549 [4] = assay: Cytotoxicity against human BT549 cells <=10 ug/ml after 2 to 7 days by neutral red assay; format: functional, cell-based
SK-OV-3 [5] = assay: Cytotoxicity against human SKOV3 cells <=10 ug/ml after 2 to 7 days by neutral red assay; format: functional, cell-based
KB [6] = assay: Cytotoxicity against human KB cells <=10 ug/ml after 2 to 7 days by neutral red assay; format: functional, cell-based
Vero [7] = assay: Cytotoxicity against african green monkey Vero cells <=10 ug/ml after 2 to 7 days by neutral red assay; format: cell-based; conditions: chlorocebus sabaeus
Plasmodium falciparum [8] = assay: Antimalarial activity against chloroquine-sensitive Plasmodium falciparum D6 after 48 hrs as LDH activity by Makler assay; format: functional, organism-based; conditions: D6, 48 h
Plasmodium falciparum [9] = assay: Antimalarial activity against chloroquine-resistant Plasmodium falciparum W2 after 48 hrs as LDH activity by Makler assay; format: functional, organism-based; conditions: W2, 48 h
SK-OV-3 [10] = assay: Cytotoxicity against human SKOV3 cells after 2 to 7 days by neutral red assay; format: functional, cell-based
BT-549 [11] = assay: Cytotoxicity against human BT549 cells after 2 to 7 days by neutral red assay; format: functional, cell-based
KB [12] = assay: Cytotoxicity against human KB cells after 2 to 7 days by neutral red assay; format: functional, cell-based
Vero [13] = assay: Cytotoxicity against african green monkey Vero cells after 2 to 7 days by neutral red assay; format: cell-based; conditions: chlorocebus sabaeus
K562 [14] = assay: Cytotoxicity against human K562 cells after 2 to 7 days by neutral red assay; format: functional, cell-based
Giardia intestinalis = assay: Antiparasitic activity against Giardia intestinalis ATCC 30888 at <=20 ug/ml after 24 hrs by XTT assay; format: functional, organism-based; conditions: Giardia duodenalis
Crithidia fasciculata = assay: Trypanocidal activity against Crithidia fasciculata ATCC 11745 at <=20 ug/ml after 48 hrs by SRB assay; format: functional, organism-based

| SMILES | Activity (K562 [1]) | Activity (Plasmodium falciparum [2]) | Activity (Plasmodium falciparum [3]) | Activity (BT-549 [4]) | Activity (SK-OV-3 [5]) | Activity (KB [6]) | Activity (Vero [7]) | IC50 (Plasmodium falciparum [8]) | IC50 (Plasmodium falciparum [9]) | IC50 (SK-OV-3 [10]) | IC50 (BT-549 [11]) | IC50 (KB [12]) | IC50 (Vero [13]) | IC50 (K562 [14]) | Activity (Giardia intestinalis) | Activity (Crithidia fasciculata) |
| --- | --- | --- | --- | --- | --- | --- | --- | --- | --- | --- | --- | --- | --- | --- | --- | --- |
| CC1=C[C@H](O)[C@@H](O)[C@]2(C)[C@H]3[C@]4(O)OC[C@]35[C@H]([C@@H](C)[C@H]4O)[C@@H](O[C@@H]3O[C@H](CO)[C@@H](O)[C@H](O)[C@H]3O)C(=O)O[C@@H]5C[C@@H]12 | inactive | inactive | inactive | inactive | inactive | inactive | Not Active |  |  |  |  |  |  |  |  |  |
| CC1=C[C@H](O)[C@@H](O)[C@]2(C)[C@H]3[C@@]4(O)OC[C@@]35[C@@H](C[C@@H]12)OC(=O)C[C@H]5[C@@H](C)[C@H]4O [CHAPARRIN] | inactive |  |  | inactive | inactive | inactive | Not Active | 0.25 µg/mL (≈ 0.657 µM) | 0.35 µg/mL (≈ 0.92 µM) |  |  |  |  |  |  |  |
| CC1=CC(=O)[C@@H](O)[C@]2(C)[C@H]3[C@]4(O)OC[C@]35[C@H]([C@@H](C)[C@H]4O)[C@@H](O)C(=O)O[C@@H]5C[C@@H]12 [GLAUCARUBOLONE] |  |  |  |  |  |  |  | 0.125 µg/mL (≈ 0.317 µM) | 0.2 µg/mL (≈ 0.507 µM) | 0.8 µg/mL (≈ 2.03 µM) | 0.4 µg/mL (≈ 1.01 µM) | 1 µg/mL (≈ 2.54 µM) | 1.5 µg/mL (≈ 3.8 µM) | 0.6 µg/mL (≈ 1.52 µM) |  |  |
| C[C@@H]1C[C@H](O)C(=O)[C@]2(C)[C@H]3[C@H](O)C(=O)[C@H](C)[C@@H]4CC(=O)O[C@H](C[C@@H]12)[C@]34C [AMAROLIDE] | inactive | inactive | inactive | inactive | inactive | inactive | Not Active |  |  |  |  |  |  |  |  |  |
| CC(=O)O[C@H]1C(=O)O[C@@H]2C[C@H]3C(C)=CC(=O)[C@@H](O)[C@]3(C)[C@H]3[C@]4(O)OC[C@]32[C@@H]1[C@@H](C)[C@H]4O [HOLACANTHONE] |  |  |  |  |  |  |  | 0.01 µg/mL (≈ 0.0229 µM) | 0.012 µg/mL (≈ 0.0275 µM) | 0.5 µg/mL (≈ 1.15 µM) | 0.3 µg/mL (≈ 0.687 µM) | 0.5 µg/mL (≈ 1.15 µM) | 1 µg/mL (≈ 2.29 µM) | 1 µg/mL (≈ 2.29 µM) |  |  |
| C[C@@H]1C[C@H](O)C(=O)[C@]2(C)[C@H]3[C@H](OC(=O)/C=C/c4ccc(O)cc4)C(=O)[C@H](C)[C@@H]4CC(=O)O[C@H](C[C@@H]12)[C@]34C | inactive |  |  | inactive | inactive | inactive | Not Active | 0.92 µg/mL (≈ 1.8 µM) | 0.75 µg/mL (≈ 1.47 µM) |  |  |  |  |  | inactive | inactive |
| COc1cccc2c1C(=O)c1c(O)c3c(c(O)c1C2=O)C[C@@](O)(C(=O)CO)C[C@@H]3O[C@H]1C[C@H](N)[C@H](O)[C@H](C)O1 [DOXORUBICIN] |  |  |  |  |  |  |  |  |  | 0.01 µg/mL (≈ 0.0184 µM) | 0.008 µg/mL (≈ 0.0147 µM) | 0.12 µg/mL (≈ 0.221 µM) | 1.5 µg/mL (≈ 2.76 µM) | 0.035 µg/mL (≈ 0.0644 µM) |  |  |
| CC1=CC(=O)[C@@H](O)[C@]2(C)[C@H]3[C@@]4(O)OC[C@@]35[C@@H](C[C@@H]12)OC(=O)C[C@H]5[C@@H](C)[C@H]4O [CHAPARRINONE] |  |  |  |  |  |  |  | 0.25 µg/mL (≈ 0.661 µM) | 0.2 µg/mL (≈ 0.529 µM) | 0.5 µg/mL (≈ 1.32 µM) | 0.8 µg/mL (≈ 2.11 µM) | 1.2 µg/mL (≈ 3.17 µM) | 1.5 µg/mL (≈ 3.96 µM) | 1.8 µg/mL (≈ 4.76 µM) |  |  |
